The values that follow come from ChEMBL document CHEMBL5236572, “Bioactive Aurones, Indanones, and Other Hemiindigoid Scaffolds: Medicinal Chemistry and Photopharmacology Perspectives” (J Med Chem, 2022).

Experiment [1] addresses Glycogen synthase kinase-3 beta (Homo sapiens, UniProt P49841). Briefly: Inhibition of recombinant GSK-3beta (unknown origin) using GS peptide as substrate in presence of ATP incubated for 1 hrs by ADP-Glo kinase assay.
The next experiment relates to NCI/ADR-RES. Briefly: Antiproliferative activity against multi drug resistant human NCI-ADR-RES cells assessed as inhibition of cell proliferation incubated for 72 hrs by MTT assay. The format is functional, cell-based. For orientation: Formazan colour is commonly taken as a measure of viable cells.
Another experiment relates to MES-SA/Dx5. Briefly: Antiproliferative activity against multi drug resistant human MES-SA/Dx5 cells assessed as inhibition of cell proliferation incubated for 72 hrs by MTT assay. The class given is functional, cell-based. The conditions noted are these: MES-SA/Dx5, 72 h.
The nature of experiment [2]: Antiproliferative activity against doxorubicin resistant human MDA-MB-231-Dox cells assessed as inhibition of cell proliferation incubated for 72 hrs by MTT assay. The class given is functional, cell-based.
The next experiment has as its system HL60/ADR. Briefly: Antiproliferative activity against drug resistant human HL60/ADR cells assessed as inhibition of cell proliferation incubated for 72 hrs by MTT assay. The format is functional, cell-based.
Experiment [3] in a line: Antiproliferative activity against multidrug resistant human CEM/VLB100 cells assessed as inhibition of cell proliferation incubated for 72 hrs by MTT assay. The note with it: CEM/VLB100, 72 h. The class given is functional, cell-based.
A further experiment deals with KB 3-1. Briefly: Antiproliferative activity against multidrug resistant human KB-3-1 cells assessed as inhibition of cell proliferation incubated for 72 hrs by MTT assay. The format is functional, cell-based. The note with it: KB 3-1, 72 h.
The nature of experiment [4]: Antiproliferative activity against multidrug resistant human MV522/MDR1 cells assessed as inhibition of cell proliferation incubated for 72 hrs by MTT assay. The class given is functional, cell-based. The conditions noted are these: MV522/MDR1, 72 h.
Experiment [5] has as its target Tubulin (Bos taurus, UniProt Q6B856+Q862L2+Q862F3). Briefly: Inhibition of bovine brain tubulin polymerization preincubated for 30 mins followed by GTP addition and measured after 20 mins by spectrophotometric analysis.
Another experiment has as its target T1, Tyrosinase (Agaricus bisporus, UniProt O42713).
T1 sequence (O42713 whole entry): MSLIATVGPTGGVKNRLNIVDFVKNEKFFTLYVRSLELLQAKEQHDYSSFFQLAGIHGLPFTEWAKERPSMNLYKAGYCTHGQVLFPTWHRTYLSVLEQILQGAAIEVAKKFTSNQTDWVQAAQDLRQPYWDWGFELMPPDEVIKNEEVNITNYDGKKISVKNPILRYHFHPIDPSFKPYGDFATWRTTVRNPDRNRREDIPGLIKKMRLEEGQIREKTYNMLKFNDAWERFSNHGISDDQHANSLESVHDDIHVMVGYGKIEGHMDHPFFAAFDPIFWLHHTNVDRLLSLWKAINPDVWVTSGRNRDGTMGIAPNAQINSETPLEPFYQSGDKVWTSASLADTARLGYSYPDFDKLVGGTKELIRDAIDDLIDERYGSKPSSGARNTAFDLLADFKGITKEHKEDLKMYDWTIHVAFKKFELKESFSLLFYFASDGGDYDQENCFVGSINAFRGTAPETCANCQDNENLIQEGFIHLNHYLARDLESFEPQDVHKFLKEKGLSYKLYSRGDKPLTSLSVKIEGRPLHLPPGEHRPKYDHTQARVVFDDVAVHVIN
Briefly: Inhibition of mushroom tyrosinase using L-DOPA as substrate incubated for 30 mins by spectrophotometric analysis.

The target in experiment [6] is T2, Amine oxidase [flavin-containing] A (Homo sapiens, UniProt P21397).
T2 sequence (P21397 whole entry): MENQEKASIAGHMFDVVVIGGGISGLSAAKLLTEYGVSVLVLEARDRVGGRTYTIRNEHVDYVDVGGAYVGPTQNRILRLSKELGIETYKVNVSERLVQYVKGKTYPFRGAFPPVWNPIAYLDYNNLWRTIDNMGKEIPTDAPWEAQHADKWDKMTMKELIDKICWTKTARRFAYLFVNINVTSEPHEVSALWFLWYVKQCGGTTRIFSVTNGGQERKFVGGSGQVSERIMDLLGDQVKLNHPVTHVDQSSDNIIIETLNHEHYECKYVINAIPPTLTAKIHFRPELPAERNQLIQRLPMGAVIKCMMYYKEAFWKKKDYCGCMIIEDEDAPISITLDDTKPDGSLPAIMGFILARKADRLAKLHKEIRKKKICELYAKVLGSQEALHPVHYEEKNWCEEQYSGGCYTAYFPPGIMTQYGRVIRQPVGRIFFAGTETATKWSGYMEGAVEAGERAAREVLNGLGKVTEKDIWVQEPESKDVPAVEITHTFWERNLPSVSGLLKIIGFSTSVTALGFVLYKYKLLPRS
Briefly: Inhibition of recombinant human MAO-A assessed as inhibition of 4-hydroxyquinoline formation using kynuramine as substrate incubated for 20 mins by fluorescence assay.

Experiment [7] has as its target T3, Amine oxidase [flavin-containing] B (Homo sapiens, UniProt P27338).
T3 sequence (P27338 whole entry): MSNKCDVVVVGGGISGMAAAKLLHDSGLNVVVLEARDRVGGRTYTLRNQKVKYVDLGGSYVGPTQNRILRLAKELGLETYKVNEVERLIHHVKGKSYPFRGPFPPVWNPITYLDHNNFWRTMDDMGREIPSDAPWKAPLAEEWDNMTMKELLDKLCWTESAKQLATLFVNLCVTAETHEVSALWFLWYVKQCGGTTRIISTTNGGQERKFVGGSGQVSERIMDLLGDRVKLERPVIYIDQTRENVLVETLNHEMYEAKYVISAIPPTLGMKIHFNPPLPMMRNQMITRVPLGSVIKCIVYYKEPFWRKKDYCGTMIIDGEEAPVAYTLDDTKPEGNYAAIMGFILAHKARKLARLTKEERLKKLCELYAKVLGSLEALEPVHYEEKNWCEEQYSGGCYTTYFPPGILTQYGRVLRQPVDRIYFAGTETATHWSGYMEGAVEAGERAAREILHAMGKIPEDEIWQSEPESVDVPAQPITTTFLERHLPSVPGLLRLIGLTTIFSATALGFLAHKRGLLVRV
Briefly: Inhibition of recombinant human MAO-B assessed as inhibition of 4-hydroxyquinoline formation using kynuramine as substrate incubated for 20 mins by fluorescence assay.

The target in experiment [8] is Tubulin (Sus scrofa, UniProt P02554+P02550). Briefly: Inhibition of porcine brain tubulin polymerization preincubated for 1 mins followed by GTP addition and measured for 60 mins at 1 min interval by fluorescence assay.
The test system of the next experiment is HeLa. Briefly: Antiproliferative activity against human HeLa cells assessed as reduction in cell viability incubated for 48 hrs by MTT assay. The class given is functional, cell-based.
The test system of another experiment is A549. Briefly: Antiproliferative activity against human A549 cells assessed as reduction in cell viability incubated for 48 hrs by MTT assay. The format is functional, cell-based. The note with it: A549, 48 h.
The next experiment concerns Bel-7402. Briefly: Antiproliferative activity against human Bel-7402 cells assessed as reduction in cell viability incubated for 48 hrs by MTT assay. The format is functional, cell-based. The note with it: Bel-7402, 48 h.
A further experiment deals with PC-3. Briefly: Antiproliferative activity against human PC-3 cells assessed as reduction in cell viability incubated for 48 hrs by MTT assay. The format is functional, cell-based. The conditions noted are these: PC-3, 48 h.
Experiment [9] deals with MDA-MB-231. Briefly: Antiproliferative activity against human MDA-MB-231 cells assessed as reduction in cell viability incubated for 48 hrs by MTT assay. The format is functional, cell-based. The conditions noted are these: MDA-MB-231, 48 h.
Experiment [10] in a line: Inhibition of Saccharomyces cerevisiae full-length ai5gamma intron self-splicing by fluorimetric assay.
A further experiment concerns Candida parapsilosis. Briefly: Antifungal activity against Candida parapsilosis assessed as reduction in fungal growth. The class given is functional. The note with it: Lodderomyces parapsilosis.
In another experiment the test system is K562. Briefly: Antiproliferative activity against human K562 cells assessed as reduction in cell viability incubated for 48 hrs by MTT assay. The format is functional, cell-based. The note with it: K562, 48 h.
Another experiment deals with MCF7. Briefly: Antiproliferative activity against human MCF7 cells assessed as reduction in cell viability incubated for 24 hrs by soft agar assay. The format is functional, cell-based. The note with it: MCF7, 24 h.
Experiment [11] relates to MDA-MB-231. Briefly: Antiproliferative activity against human MDA-MB-231 cells assessed as reduction in cell viability incubated for 24 hrs by soft agar assay. The conditions noted are these: MDA-MB-231, 24 h. The format is functional, cell-based.
Experiment [12] in a line: Antioxidant activity assessed as DPPH radical scavenging activity at 100 uM measured for 20 mins by spectrophotometric analysis. The format is functional. Background: The DPPH test is a chemical assay of radical scavenging.
Experiment [13] in a line: Antioxidant activity assessed as DPPH radical scavenging activity at 100 uM measured for 60 mins by spectrophotometric analysis. The class given is functional.
Experiment [14] is described as follows: Antioxidant activity assessed as ABTS radical scavenging activity at 100 uM incubated for 12 to 16 hrs in dark. The format is functional. The note with it: time 12-16 hrs.
Experiment [15] is described as follows: Inhibition of AAPH induced lipid peroxidation. The note with it: dose or concentration not given here.

Structures are written as SMILES. In brackets after ≈: the same amount, converted by molar mass.

For orientation: IC50 means the concentration that inhibits the measured activity by half. The term Ki denotes the dissociation constant of the complex between target and ligand, obtained from inhibition or displacement. Read a low Ki as a stronger hold on the target. Broadly, the MIC is the lowest concentration that inhibits growth of the organism. As a reminder, the inhibition is the relative decrease from the control value, in per cent.

Chain of Glycogen synthase kinase-3 beta (P49841 whole entry): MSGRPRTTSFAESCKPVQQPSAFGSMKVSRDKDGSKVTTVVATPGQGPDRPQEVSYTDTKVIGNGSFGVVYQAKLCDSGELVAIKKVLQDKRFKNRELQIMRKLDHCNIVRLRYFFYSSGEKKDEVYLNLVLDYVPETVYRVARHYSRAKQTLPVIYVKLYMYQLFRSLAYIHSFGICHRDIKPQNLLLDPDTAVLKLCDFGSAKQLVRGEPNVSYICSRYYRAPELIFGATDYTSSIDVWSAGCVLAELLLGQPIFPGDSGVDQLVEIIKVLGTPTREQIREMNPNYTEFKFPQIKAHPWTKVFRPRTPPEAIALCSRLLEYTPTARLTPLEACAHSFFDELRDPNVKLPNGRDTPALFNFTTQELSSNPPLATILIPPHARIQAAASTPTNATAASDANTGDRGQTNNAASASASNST

On to `O=C1/C(=C/c2c[nH]c3ncccc23)Oc2cc(OCc3cccc(F)c3)ccc21`, for which, in [1], the concentration for half-maximal inhibition (IC50) is 450 nM.

For the compound `COc1cc2c(c(N)c1OC)C(=O)/C(=C/c1cc(C)c(O)c(C)c1)C2`, the IC50 (in the experiment on NCI/ADR-RES; with MES-SA/Dx5; in [2]; in the experiment with HL60/ADR; in experiment [3]; in the experiment with KB 3-1) was 2 nM each time. Further, the concentration for half-maximal inhibition (IC50) amounted to 2 nM in [4] and 1700 nM against Tubulin [5].

In the case of `O=C1/C(=C/c2ccc(O)cc2O)Cc2ccccc21`, half-maximal inhibition against Tyrosinase (IC50) was put at 34 nM.

`COc1ccc2c(c1)C/C(=C\c1ccc(Br)o1)C2=O`: the 50% inhibitory concentration (IC50) is 180 nM in experiment [6] and 40 nM in experiment [7].

Consider `COc1ccc(/C=C2\Cc3c(cc(OC)c(OC)c3OC)C2=O)cc1O`, for which the concentration for half-maximal inhibition (IC50) came to 7560 nM at Tubulin [8]; 170 nM with HeLa; 170 nM in the experiment with A549; 170 nM with Bel-7402; 170 nM in the experiment with PC-3; 170 nM in the experiment on MDA-MB-231 [9].

As to `CN(Cc1ccccc1)Cc1c(O)ccc2c1O/C(=C\c1ccc3c(c1)OCO3)C2=O`, the IC50 in [1] was 310 nM.

On to `O=C1/C(=C/c2cc(O)c(O)c(O)c2)Oc2cc(O)cc(O)c21`, for which, in [10], affinity was put at a Ki of 5800 nM. The MIC in the experiment with Candida parapsilosis is 30 µM (≈ 9.07 µg/mL).

With `COc1cc2c(c(OC)c1OC)C/C(=C\c1cccc3[nH]ccc13)C2=O`, the IC50 stood at 1990 nM on Tubulin [8]; 30 nM in the experiment on HeLa; 30 nM with A549; 30 nM in the experiment with Bel-7402; 30 nM with PC-3; 30 nM in the experiment with K562.

In the case of `COc1cc(C2/C(=C/c3ccc(F)cc3)C(=O)c3cc(OC)c(OC)c(OC)c32)cc(OC)c1OC` (stereo not given), the half-inhibitory concentration (IC50) in the experiment with MCF7 and in the experiment with MDA-MB-231 [11] was 27000 nM in each case.

Turning to `O=C1/C(=C/c2ccc(O)c(O)c2)Oc2cc(O)ccc21`, the Activity came out at 89% in [12], 89% in [13] and 71% in [14]. Besides, in experiment [15], the inhibition came to 53%.

Consider `O=C1/C(=C/c2cc(O)c(O)c(O)c2)Oc2ccccc21`, for which affinity in [10] was put at a Ki of 2100 nM. Moreover, the MIC in the experiment on Candida parapsilosis stood at 53 µM (≈ 14.3 µg/mL).
